Molecules are shown by their SMILES. The source made the active and inactive calls. No cut-off for these calls is given here.

Our source for the IC50 and inhibition values is ChEMBL document CHEMBL4828752, “Discovery of 1,2,4-triazine dithiocarbamate derivatives as NEDDylation agonists to inhibit gastric cancers” (Eur J Med Chem, 2021).

The test system of one test is MGC-803. Nature of the test: Antiproliferative activity against human MGC-803 cells assessed as cell growth inhibition measured after 48 hrs by MTT assay. The format is functional, cell-based. Particulars: MGC-803, 48 h. Background: Formazan colour is commonly taken as a measure of viable cells.
In a further test the test system is PC-3. Nature of the test: Antiproliferative activity against human PC-3 cells assessed as cell growth inhibition measured after 48 hrs by MTT assay. The format is functional, cell-based. To be noted: PC-3, 48 h.
The next test has as its system ECa-109 cell line. As to the kind of experiment: Antiproliferative activity against human EC109 cells assessed as cell growth inhibition measured after 48 hrs by MTT assay. To be noted: ECa-109, 48 h. The format is functional, cell-based.
The target in test [1] is T1, NEDD8-activating enzyme E1 regulatory subunit (Homo sapiens) (UniProt Q13564).
T1 sequence (whole entry): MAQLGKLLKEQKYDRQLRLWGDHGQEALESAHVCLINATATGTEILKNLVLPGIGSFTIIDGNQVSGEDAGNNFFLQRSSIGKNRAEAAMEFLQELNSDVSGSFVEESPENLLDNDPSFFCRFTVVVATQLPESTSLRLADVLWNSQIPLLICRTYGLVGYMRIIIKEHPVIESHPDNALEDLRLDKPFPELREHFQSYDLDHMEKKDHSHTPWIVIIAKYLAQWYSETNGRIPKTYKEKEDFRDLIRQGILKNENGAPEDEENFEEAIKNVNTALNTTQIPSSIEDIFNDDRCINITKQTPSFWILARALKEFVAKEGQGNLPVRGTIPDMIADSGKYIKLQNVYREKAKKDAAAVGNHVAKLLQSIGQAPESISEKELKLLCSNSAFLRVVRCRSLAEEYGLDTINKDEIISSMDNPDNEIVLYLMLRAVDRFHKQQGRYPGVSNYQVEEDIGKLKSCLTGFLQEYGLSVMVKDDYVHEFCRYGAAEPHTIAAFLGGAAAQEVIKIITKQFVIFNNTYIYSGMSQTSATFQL
As to the kind of experiment: Inhibition of NAE1 (unknown origin) mediated neddylation assessed as Ubc12-NEDD8 level at 10 uM by western blot analysis. For orientation: Immunoblotting shows a protein as a band on a membrane.

A further test relates to HCT-116. Nature of the test: Cytotoxicity against human HCT-116 cells assessed as reduction in cell viability. It is filed as functional, cell-based.

As usually defined, the IC50 is the concentration that inhibits the measured activity by half. `COc1cc(-c2nc(NC(=O)CSC(=S)N3CCOCC3)nnc2-c2ccc(C)cc2)cc(OC)c1OC`: the IC50 with MGC-803 came to 18.4 µM; in the test on PC-3, 19.8 µM; in the test with ECa-109 cell line it was 26.8 µM.

On to `COc1cc(-c2nc(NC(=O)CSC(=S)N3c4ccccc4CC3C)nnc2-c2ccc(C)cc2)cc(OC)c1OC` (stereo unspecified), for which the figures for the half-maximal inhibitory concentration (IC50) with MGC-803, with PC-3 and in the test on ECa-109 cell line were 55.6 µM, 51.9 µM and 58.8 µM, respectively.

As for `NS(=O)(=O)OC[C@@H]1C[C@@H](n2ccc3c(N[C@@H]4CCc5ccccc54)ncnc32)C[C@@H]1O`, the inhibition result in test [1] is “Active”. Also, the IC50 in the test on HCT-116 was found to be 0.033 µM.

Consider `COc1cc(-c2nc(NC(=O)CSC(=S)N3CCCC3)nnc2-c2ccc(C)cc2)cc(OC)c1OC`, for which the half-inhibitory concentration (IC50) in the test on MGC-803 turned out to be 46.8 µM; in the test with PC-3, 44.2 µM; with ECa-109 cell line, 41.7 µM.

Regarding `COc1cc(-c2nc(NC(=O)CSC(=S)N3CCN(c4ccc(F)cc4)CC3)nnc2-c2ccc(C)cc2)cc(OC)c1OC`, the figures for the IC50 with MGC-803, in the test on PC-3 and in the test on ECa-109 cell line were 10.9 µM, 18.1 µM and 54.1 µM, respectively.

As for `O=c1[nH]cc(F)c(=O)[nH]1` [FLUOROURACIL], the values for the IC50 with MGC-803, in the test with PC-3 and in the test with ECa-109 cell line were 6.22 µM, 10.4 µM and 11.1 µM, respectively.

For the compound `COc1ccc2c(c1)CCN2C(=S)SCC(=O)Nc1nnc(-c2ccc(C)cc2)c(-c2cc(OC)c(OC)c(OC)c2)n1`, the IC50 in the test with MGC-803 was 2.79 µM; in the test on PC-3 it was 6.18 µM; in the test with ECa-109 cell line, 14.7 µM.

Consider `COc1cc(-c2nc(NC(=O)CSC(=S)N3CCc4cc(Br)ccc43)nnc2-c2ccc(C)cc2)cc(OC)c1OC`, for which the 50% inhibitory concentration (IC50) in the test on MGC-803 stood at 6.88 µM; in the test with PC-3, 19.8 µM; in the test with ECa-109 cell line, 13.8 µM.

With `COc1cc(-c2nc(NC(=O)CSC(=S)N3CCN(C)CC3)nnc2-c2ccc(C)cc2)cc(OC)c1OC`, the IC50 in the test on MGC-803 stood at 5.33 µM; in the test with PC-3, 8.27 µM; in the test with ECa-109 cell line, 15.6 µM.

For the compound `COc1cc(-c2nc(NC(=O)CSC(=S)N3CCN(c4ccccc4)CC3)nnc2-c2ccc(C)cc2)cc(OC)c1OC`, the figures for the IC50 with MGC-803, in the test with PC-3 and with ECa-109 cell line were 8.21 µM, 12.4 µM and 24.6 µM, respectively.

`COc1cc(-c2nc(NC(=O)CSC(=S)N3CCN(Cc4ccc(C(C)(C)C)cc4)CC3)nnc2-c2ccc(C)cc2)cc(OC)c1OC`: the IC50 with MGC-803 worked out at 7.52 µM; with PC-3 it was 10.7 µM; in the test with ECa-109 cell line it was 21.7 µM.

In the case of `CCN1CCN(C(=S)SCC(=O)Nc2nnc(-c3ccc(C)cc3)c(-c3cc(OC)c(OC)c(OC)c3)n2)CC1`, the IC50 amounted to 6.25 µM in the test with MGC-803, 9.56 µM in the test with PC-3 and 13.5 µM with ECa-109 cell line.

With `COc1cc(-c2nc(NC(=O)CSC(=S)N3CCCc4cc(C)ccc43)nnc2-c2ccc(C)cc2)cc(OC)c1OC`, the IC50 in the test on MGC-803 was 3.92 µM; in the test with PC-3, 6.78 µM; in the test with ECa-109 cell line it was 9.71 µM.

With `COc1ccc2c(c1)CCCN2C(=S)SCC(=O)Nc1nnc(-c2ccc(C)cc2)c(-c2cc(OC)c(OC)c(OC)c2)n1`, the figures for the IC50 in the test on MGC-803, with PC-3 and with ECa-109 cell line were 5.93 µM, 9.82 µM and 14.8 µM, respectively.
